According to patent publication US8741931B2, “Kinase inhibitors” (priority 2007, dated 2014):

Legend:
Format in all cases: biochemical
[1] = molecular target: PKC delta kinase (Homo sapiens, UniProt Q05655); test: PKC Delta (coupled enzyme assay); details: 150 μM ATP, 46 nM PKC delta; read-out: Ki PKC delta
Description: (§1) An assay buffer solution was prepared which consisted of 100 mM HEPES (pH 7.5), 10 mM MgCl2, 25 mM NaCl, 0.1 mM EDTA and 0.01% Brij. […] To 16 μL of this enzyme buffer, in a 384 well plate, was added 1 μL of VRT stock solution in DMSO. The mixture was allowed to equilibrate for 10 mins at 30° C. […] Ki values were calculated from initial rate data by non-linear regression using the Prism software package (Prism 4.0a, Graphpad Software, San Diego, Calif.).

[2] = molecular target: PKC alpha kinase (Homo sapiens, UniProt P17252); test: PKC Alpha (coupled enzyme assay); details: 130 μM ATP, 4.5 nM PKC alpha
Description: as §1, with “EDTA, 100 μM CaCl2” for “EDTA”

[3] = molecular target: PKC theta kinase (Homo sapiens, UniProt Q04759); test: PKC Theta I (coupled enzyme assay, absorbance at 340 nm); details: 240 μM ATP, 18 nM PKC theta, absorbance read out
Sequence of PKC theta kinase (Q04759 whole entry): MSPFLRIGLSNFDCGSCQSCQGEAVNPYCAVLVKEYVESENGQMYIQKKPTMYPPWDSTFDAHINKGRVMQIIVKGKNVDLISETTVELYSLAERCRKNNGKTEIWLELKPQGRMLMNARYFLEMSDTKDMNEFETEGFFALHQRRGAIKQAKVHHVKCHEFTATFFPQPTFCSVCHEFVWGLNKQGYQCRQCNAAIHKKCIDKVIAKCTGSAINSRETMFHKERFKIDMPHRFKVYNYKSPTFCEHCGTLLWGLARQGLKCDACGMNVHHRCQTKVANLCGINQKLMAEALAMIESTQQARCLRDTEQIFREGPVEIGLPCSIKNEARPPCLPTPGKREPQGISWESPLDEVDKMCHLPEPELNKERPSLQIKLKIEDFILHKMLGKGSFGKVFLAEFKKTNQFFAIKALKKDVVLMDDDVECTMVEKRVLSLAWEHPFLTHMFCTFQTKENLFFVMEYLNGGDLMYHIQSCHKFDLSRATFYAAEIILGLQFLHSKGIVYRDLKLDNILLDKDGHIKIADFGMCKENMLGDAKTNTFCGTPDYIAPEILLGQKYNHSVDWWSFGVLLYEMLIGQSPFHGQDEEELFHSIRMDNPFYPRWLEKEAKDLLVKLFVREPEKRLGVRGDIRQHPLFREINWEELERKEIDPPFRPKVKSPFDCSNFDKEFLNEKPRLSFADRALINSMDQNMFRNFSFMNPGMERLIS
Description: as §1, with “To 60” for “To 16”, “added 2” for “added 1”

Sequence of PKC delta kinase (Q05655 whole entry): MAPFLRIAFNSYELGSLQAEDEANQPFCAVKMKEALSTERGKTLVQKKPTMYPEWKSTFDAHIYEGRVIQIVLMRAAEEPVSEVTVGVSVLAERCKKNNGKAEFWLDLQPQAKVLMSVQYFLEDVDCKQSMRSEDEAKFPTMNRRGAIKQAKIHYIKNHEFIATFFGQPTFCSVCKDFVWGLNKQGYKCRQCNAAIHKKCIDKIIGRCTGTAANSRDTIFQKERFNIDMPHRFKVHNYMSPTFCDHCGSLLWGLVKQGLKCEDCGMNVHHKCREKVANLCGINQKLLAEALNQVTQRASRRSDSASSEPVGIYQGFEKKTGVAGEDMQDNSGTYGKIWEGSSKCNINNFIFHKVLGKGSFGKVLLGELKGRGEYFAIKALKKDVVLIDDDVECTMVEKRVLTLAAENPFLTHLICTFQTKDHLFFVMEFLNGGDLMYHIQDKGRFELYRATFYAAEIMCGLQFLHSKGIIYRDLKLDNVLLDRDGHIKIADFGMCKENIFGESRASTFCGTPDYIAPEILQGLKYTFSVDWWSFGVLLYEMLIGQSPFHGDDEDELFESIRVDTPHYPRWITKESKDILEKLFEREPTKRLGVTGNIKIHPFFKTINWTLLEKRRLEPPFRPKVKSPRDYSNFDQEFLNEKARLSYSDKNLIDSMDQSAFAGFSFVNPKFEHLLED

| SMILES | Ki [1] | Ki [2] | Ki [3] |
| --- | --- | --- | --- |
| Nc1ncccc1C(=O)c1nc(OCC(N)C2CCOCC2)ccc1C(F)(F)F (centres unmarked) [compound 433] | > 2.8 µM | > 2.8 µM |  |
| CC(C)C[C@H]1CN(c2ccc(C(F)(F)F)c(C(=O)c3cccnc3N)n2)C[C@H](C)N1 [compound 483] | 0.5 to 2.8 µM | 0.5 to 2.8 µM |  |
| Nc1ncc(Br)cc1C(=O)c1cccc(N2CCCN(Cc3ccccc3)CC2)n1 [compound 99] |  |  | 0.5 to 2.8 µM |
| CC(C)(C)C1CN(c2ccc(C(F)(F)F)c(C(=O)c3cccnc3N)n2)CCN1 (centres unmarked) [compound 456] | > 2.8 µM | > 2.8 µM |  |
| Nc1ncccc1C(=O)c1nc(N2CCNC(c3cccc(Cl)c3)C2)ccc1C(F)(F)F (centres unmarked) [compound 497] |  | < 0.05 µM |  |
| CC(C)(C)CC(=O)N1CCCN(c2cccc(C(=O)c3cccnc3N)n2)CC1 [compound 26] |  |  | 0.5 to 2.8 µM |
| CC(C)(CN)CNc1ccc(C(F)(F)F)c(C(=O)c2cccnc2N)n1 [compound 425] | 0.05 to 0.5 µM | 0.5 to 2.8 µM |  |
| CC(C)(C)N1CCN(c2cccc(C(=O)c3cccnc3N)n2)CC1 [compound 88] |  |  | 0.5 to 2.8 µM |
| CN(C)C1CCN(c2cccc(C(=O)c3cccnc3N)n2)CC1 [compound 137] |  |  | 0.5 to 2.8 µM |
| Nc1ncccc1C(=O)c1cccc(N2CCCN(C(=O)Cc3ccccc3Cl)CC2)n1 [compound 29] |  |  | 0.5 to 2.8 µM |
| CN1CCC(N2CCN(c3cccc(C(=O)c4cc(Br)cnc4N)n3)CC2)CC1 [compound 101] |  |  | 0.5 to 2.8 µM |
| Cc1ccc(-c2ccc(N3CCNC(c4ccccc4)C3)nc2C(=O)c2cccnc2N)o1 (centres unmarked) [compound 469] | 0.05 to 0.5 µM | 0.5 to 2.8 µM |  |
| Cc1ccc(N2CCCNCC2)nc1C(=O)c1cccnc1N [compound 209] | 0.5 to 2.8 µM | 0.5 to 2.8 µM |  |
| Nc1ncc(Br)cc1C(=O)c1cccc(N2CCCN(C(=O)Cc3ccccc3)CC2)n1 [compound 72] |  |  | 0.5 to 2.8 µM |
| CC(C)(F)CC1CN(c2ccc(C(F)(F)F)c(C(=O)c3cccnc3N)n2)CCN1 (centres unmarked) [compound 464] | 0.05 to 0.5 µM | 0.5 to 2.8 µM |  |
| Nc1ncc(Cl)cc1C(=O)c1nc(N2CCNCC2)ccc1C(F)(F)F [compound 495] | 0.05 to 0.5 µM | < 0.05 µM |  |
| CC[C@](CN)(CNc1ccc(C(F)(F)F)c(C(=O)c2cccnc2N)n1)c1ccccc1 [compound 463] |  | < 0.05 µM |  |
| CC(C)(C)[C@H](N)COc1ccc(C(F)(F)F)c(C(=O)c2cccnc2N)n1 [compound 422] | 0.5 to 2.8 µM | > 2.8 µM |  |
| C=Cc1cnc(N)c(C(=O)c2nc(N3CCN[C@@H](CC(C)C)C3)ccc2C(F)(F)F)c1 [compound 487] | 0.05 to 0.5 µM | < 0.05 µM |  |
| CC(C)C[C@H]1CN(c2ccc(C(F)(F)F)c(C(=O)c3cccnc3N)n2)C[C@@H](C)N1 [compound 490] |  | < 0.05 µM |  |
| C=Cc1ccc(N2CCN[C@H](c3ccccc3)C2)nc1C(=O)c1cccnc1N [compound 445] | 0.5 to 2.8 µM | 0.5 to 2.8 µM |  |
| NCC(CNc1ccc(C(F)(F)F)c(C(=O)c2cccnc2N)n1)c1ccccc1 (centres unmarked) [compound 431] |  | < 0.05 µM |  |
| Cc1ccc(-c2ccc(N3CCNCC3)nc2C(=O)c2cccnc2N)o1 [compound 470] | 0.05 to 0.5 µM | > 2.8 µM |  |
| CCC[C@@H]1CN(c2ccc(C(F)(F)F)c(C(=O)c3cccnc3N)n2)C[C@H](CC(C)C)N1 [compound 494] |  | < 0.05 µM |  |
| Nc1ncccc1C(=O)c1nc(N2CCN[C@H](c3ccccc3)C2)ccc1C(F)(F)F [compound 447] | 0.5 to 2.8 µM | 0.5 to 2.8 µM |  |
| Cc1ccccc1C(=O)N1CCCN(c2cccc(C(=O)c3cccnc3N)n2)CC1 [compound 89] | > 2.8 µM | 0.5 to 2.8 µM |  |
| C=C(F)c1ccc(N2CCNC(C(F)(F)F)C2)nc1C(=O)c1cccnc1N (centres unmarked) [compound 504] |  | 0.5 to 2.8 µM |  |
| NCC1CCCC(CNc2ccc(C(F)(F)F)c(C(=O)c3cccnc3N)n2)C1 (centres unmarked) [compound 429] | 0.05 to 0.5 µM | > 2.8 µM |  |

| SMILES | Ki [1] | Ki [2] | Ki [3] |
| --- | --- | --- | --- |
| C=C(F)c1ccc(N2CCN[C@@H](CC(C)C)C2)nc1C(=O)c1cccnc1N [compound 424] |  | < 0.05 µM |  |
| CC(N)(CNc1ccc(C(F)(F)F)c(C(=O)c2cccnc2N)n1)Cc1ccccc1 (centres unmarked) [compound 452] | 0.05 to 0.5 µM | 0.5 to 2.8 µM |  |
| COCC#Cc1cnc(N)c(C(=O)c2cccc(N3CCCNCC3)n2)c1 [compound 138] | 0.05 to 0.5 µM |  |  |
| NCC1CCC(CNc2ccc(C(F)(F)F)c(C(=O)c3cccnc3N)n2)CC1 (centres unmarked) [compound 451] | > 2.8 µM | > 2.8 µM |  |
| CC(C)CC(C)(N)CNc1ccc(C(F)(F)F)c(C(=O)c2cccnc2N)n1 (centres unmarked) [compound 443] | 0.05 to 0.5 µM |  |  |
| CC(C)[C@H]1CN(c2ccc(C(F)(F)F)c(C(=O)c3cccnc3N)n2)C[C@H](c2ccccc2)N1 [compound 450] | 0.05 to 0.5 µM |  |  |
| C=C(F)c1ccc(N2CCN[C@@H](CC(C)(C)F)C2)nc1C(=O)c1cccnc1N [compound 506] | 0.05 to 0.5 µM | 0.5 to 2.8 µM |  |
| CC[C@@H]1CN(c2ccc(C(F)(F)F)c(C(=O)c3cccnc3N)n2)C[C@H](CC(C)C)N1 [compound 488] |  | < 0.05 µM |  |
| CC(C)C[C@H]1CN(c2ccc(-c3ccccc3F)c(C(=O)c3cccnc3N)n2)CCN1 [compound 435] |  | < 0.05 µM |  |
| Nc1ncccc1C(=O)c1nc(NCC2CCC(N)CC2)ccc1C(F)(F)F (centres unmarked) [compound 460] | 0.5 to 2.8 µM | > 2.8 µM |  |
| CC1CCCCC1C(=O)N1CCCN(c2cccc(C(=O)c3cccnc3N)n2)CC1 (centres unmarked) [compound 93] | > 2.8 µM |  |  |
| Nc1ncccc1C(=O)c1nc(N2CCNC(C(F)(F)F)C2)ccc1C(F)(F)F (centres unmarked) [compound 477] | 0.05 to 0.5 µM | > 2.8 µM |  |
| CC[C@H]1CN(c2ccc(C(F)(F)F)c(C(=O)c3cccnc3N)n2)C[C@H](C(C)C)N1 [compound 473] | 0.05 to 0.5 µM |  |  |
| C=C(F)c1ccc(N2CCNC(c3ccccc3)C2)nc1C(=O)c1cccnc1N (centres unmarked) [compound 457] |  | < 0.05 µM |  |
| Nc1ncc(C(F)(F)F)cc1C(=O)c1cccc(N2CCCNCC2)n1 [compound 140] | 0.05 to 0.5 µM |  |  |
| Nc1ncccc1C(=O)c1nc(N2CCNC(CC(F)(F)F)C2)ccc1C(F)(F)F (centres unmarked) [compound 491] | 0.5 to 2.8 µM | > 2.8 µM |  |
| Cn1cc(-c2cccc(C(=O)c3cccnc3N)n2)cn1 [compound 292] | > 2.8 µM |  |  |
| CCC1CN(c2ccc(C(F)(F)F)c(C(=O)c3cccnc3N)n2)CCN1 (centres unmarked) [compound 432] | 0.05 to 0.5 µM |  |  |
| CC(C)(C)CN1CCCN(c2cccc(C(=O)c3cccnc3N)n2)CC1 [compound 126] | 0.5 to 2.8 µM |  |  |
| CC#Cc1ccc(N2CCN[C@H](c3ccccc3)C2)nc1C(=O)c1cccnc1N [compound 465] | 0.05 to 0.5 µM | 0.5 to 2.8 µM |  |
| C=C(F)c1ccc(N2CCN[C@H](c3ccccc3)C2)nc1C(=O)c1cccnc1N [compound 474] | 0.05 to 0.5 µM |  |  |
| C=C(F)c1ccc(N2CCN[C@@H](c3ccccc3)C2)nc1C(=O)c1cccnc1N [compound 475] |  | < 0.05 µM |  |
| C[C@@H]1CNCCN1c1ccc(C(F)(F)F)c(C(=O)c2cccnc2N)n1 [compound 484] | 0.05 to 0.5 µM |  |  |
| CC(C)C[C@H]1CN(c2ccc(C(F)(F)F)c(C(=O)c3cc(Br)cnc3N)n2)CCN1 [compound 479] | 0.05 to 0.5 µM |  |  |
| C=C(F)c1ccc(N2CCNC(c3cccc(Cl)c3)C2)nc1C(=O)c1cccnc1N (centres unmarked) [compound 476] |  | < 0.05 µM |  |
| CC(C)(O)CC1CN(c2ccc(C(F)(F)F)c(C(=O)c3cccnc3N)n2)CCN1 (centres unmarked) [compound 459] | 0.05 to 0.5 µM |  |  |
| CCN1CCCN(c2cccc(C(=O)c3cc(Br)cnc3N)n2)CC1 [compound 115] | 0.05 to 0.5 µM |  |  |
